US20230119764A1, “APPLICATION OF DIMETHYL BERBAMINE COMPOUND IN INHIBITION OF SARS-COV-2” (priority 2020, published 2023)
Entries after “also recorded” stand apart in the source; their conditions may differ.

How the values were obtained:
Format in all cases: cell-based
[1] = system: SARS-CoV-2 virus (nCoV-2019BetaCoV/Wuhan/WIV04/2019 isolate); experiment: microbe, parasite or virus in culture; conditions: for Copy number of viral genome (MOI = 0.01): MOI 0.01, Vero E6 supernatant; for Copy number of viral genome (MOI = 0.01) / Copy number of viral genome (MOI = 0.05): 48 h, copy number per milliliter; for Copy number of viral genome (MOI = 0.05): MOI 0.05, Vero E6 supernatant; for SI (selectivity index): Example 1, drug pretreatment 1 hour; for EC50: Severe acute respiratory syndrome coronavirus 2, Vero C1008, Example 1, drug pretreatment 1 hour
[2] = Drug cytotoxicity on cells, CellTiter-Glo kit; conditions: African green monkey; Vero-E6 cells, 24 hours
Procedure: (§1) 1.5.1 Vero E6 cell culture: 0.1 ml of 0.25% trypsin, 5 ml of 0.02% EDTA were added to a culture flask full of cells, the digestion was carried out at 37° C. for 5 minutes, then the digestion solution was discarded, the cell culture solution was added and then mixed by pipetting up-down. The cells were subcultured at 1:3, reached confluence within 3 days, formulated into 100,000 cells per ml, inoculated to a 96-well cell culture plate, 0.1 ml per well, and cultured at 37° C., 5% CO2 for 24 hours, and the cells grew into monolayer was used for experiment.
(§2) 1.5.2 Experiment of Drug Cytotoxicity on Cells:
(§3) The detection of drug cytotoxicity was determined using CellTiter-Glo kit (Promega). Specific steps were as follows:
(§4) (1) 1×10^4 Vero-E6 cells were inoculated in a 96-well plate and cultured at 37° C. for 8 hours.
(§5) (2) The stock solution of drug was diluted with MEM medium containing 2% FBS to the desired concentration, the original medium in the 96-well plate was discarded, and 100 μL of the drug-containing MEM medium was taken and added to the corresponding wells, so that the final concentrations of drug in the wells were those shown in Tables 1 to 3, respectively, and three replicate wells were made for each concentration. At the same time, a vehicle control (adding DMSO or PBS, and 2% FBS-containing MEM medium without drug to the cell wells) and a blank control (adding DMSO and 2% FBS-containing MEM medium to the wells without cells) were set. After the addition of drug, the cells were incubated at 37° C. for 24 hours.
(§6) (3) 100 μL of CellTiter-Glo solution (Promega) was added to the wells to be tested, and mixed by shaking for 2 min to fully lyse the cells, incubated at room temperature for 10 minutes, and readings of chemiluminescence signals […] were obtained on a microplate reader (purchased from Molecular Devices, model: SpectraMax M5). The cell viability was calculated by taking the readings into the following formula:
(§7) Cell viability (%)=(A(drug treatment group)−A(blank control))/(A(vehicle control)−A(blank control))×100%
(§8) where A represented the reading on the microplate reader.

Vero-E6 cells = experiment: Drug cytotoxicity on cells, CellTiter-Glo kit; conditions: for Cell viability (% of vehicle control): Vero-E6, 24 hours
Procedure: as §1, §2, §3, §4, §5, §6, §7, §8

[3] = system: SARS-CoV-2 virus (nCoV-2019BetaCoV/Wuhan/WIV04/2019 isolate); experiment: microbe, parasite or virus in culture; conditions: for SI (selectivity index): Example 2, no drug pretreatment; for EC50: Severe acute respiratory syndrome coronavirus 2, Vero C1008, Example 2, no drug pretreatment; for Inhibition of SARS-CoV-2 (in words): Example 2, drug added after virus infection of cells
[4] = system: SARS-CoV-2 virus (nCoV-2019BetaCoV/Wuhan/WIV04/2019 isolate); experiment: EC50 by nucleic acid quantification on Vero cells (Example 3), quantitative RT-PCR
[5] = MOI 0.01, Vero E6, read-out: EC50
[6] = MOI 0.05, Vero E6, read-out: EC50

CCC(CC)COC(=O)[C@H](C)N[P@](=O)(OC[C@H]1O[C@@](C#N)(c2ccc3c(N)ncnn23)[C@H](O)[C@@H]1O)Oc1ccccc1 [Remdesivir]
Copy number of viral genome (MOI = 0.01) ([1]; 0.12 μM): 3900176000 | Copy number of viral genome (MOI = 0.05) ([1]; 0.12 μM): 11594175000 | Copy number of viral genome (MOI = 0.01) ([1]; 0.37 μM): 1901120292 | Copy number of viral genome (MOI = 0.05) ([1]; 0.37 μM): 9405568167 | Copy number of viral genome (MOI = 0.01) ([1]; 1.11 μM): 19898611 | Copy number of viral genome (MOI = 0.05) ([1]; 1.11 μM): 545157271 | Copy number of viral genome (MOI = 0.01) ([1]; 3.33 μM): 243294 | Copy number of viral genome (MOI = 0.05) ([1]; 3.33 μM): 13188656 | Copy number of viral genome (MOI = 0.01) ([1]; 10 μM): 563645 | Copy number of viral genome (MOI = 0.05) ([1]; 10 μM): 3230111 | Copy number of viral genome (MOI = 0.01) ([1]; 30 μM): 975616 | Copy number of viral genome (MOI = 0.05) ([1]; 30 μM): 2594526 | SI (selectivity index) ([1]; MOI 0.01): 534.33 | SI (selectivity index) ([1]; MOI 0.05): 271.69 | EC50 ([1]; MOI 0.01, Vero E6): 300 nM | EC50 ([1]; MOI 0.05, Vero E6): 590 nM | CC50 at 24 h [2]: 160 µM | Cell viability (% of vehicle control) (Vero-E6 cells; 3.13 μM): 97.16 % of vehicle control | Cell viability (% of vehicle control) (Vero-E6 cells; 6.25 μM): 99.17 % of vehicle control | Cell viability (% of vehicle control) (Vero-E6 cells; 12.5 μM): 99.62 % of vehicle control | Cell viability (% of vehicle control) (Vero-E6 cells; 25 μM): 95.71 % of vehicle control | Cell viability (% of vehicle control) (Vero-E6 cells; 50 μM): 90.20 % of vehicle control | Cell viability (% of vehicle control) (Vero-E6 cells; 100 μM): 70.09 % of vehicle control | Cell viability (% of vehicle control) (Vero-E6 cells; 200 μM): 40.05 % of vehicle control | SI (selectivity index) ([3]; MOI 0.01): 696.96 | SI (selectivity index) ([3]; MOI 0.05): 258.55 | EC50 ([3]; MOI 0.01, Vero E6): 230 nM | EC50 ([3]; MOI 0.05, Vero E6): 620 nM

COc1ccc2cc1Oc1ccc(cc1)C[C@H]1c3cc(c(OC)cc3CCN1C)Oc1c(OC)c(OC)cc3c1[C@H](C2)N(C)CC3 [Tetrandrine, 6,6′,7,12-tetramethoxy-2,2′-dimethylberbamine]
Copy number of viral genome (MOI = 0.01) ([1]; 0.625 μM): 3357508000 | Copy number of viral genome (MOI = 0.05) ([1]; 0.625 μM): 10669558667 | Copy number of viral genome (MOI = 0.01) ([1]; 1.25 μM): 3336005167 | Copy number of viral genome (MOI = 0.05) ([1]; 1.25 μM): 7198143667 | Copy number of viral genome (MOI = 0.01) ([1]; 2.5 μM): 1707286250 | Copy number of viral genome (MOI = 0.05) ([1]; 2.5 μM): 7118504000 | Copy number of viral genome (MOI = 0.01) ([1]; 5 μM): 373861479 | Copy number of viral genome (MOI = 0.05) ([1]; 5 μM): 2477488500 | Copy number of viral genome (MOI = 0.01) ([1]; 10 μM): 1456943 | Copy number of viral genome (MOI = 0.05) ([1]; 10 μM): 8161310 | Copy number of viral genome (MOI = 0.01) ([1]; 20 μM): 1323393 | Copy number of viral genome (MOI = 0.05) ([1]; 20 μM): 4092752 | SI (selectivity index) ([1]; MOI 0.01): 14.33 | SI (selectivity index) ([1]; MOI 0.05): 8.51 | Inhibition of SARS-CoV-2 (in words) ([1]; Example 1, in vitro, Vero E6): obvious inhibitory effects; also recorded: inhibitory activity | EC50 [1, 5]: 1710 nM | EC50 [1, 6]: 2880 nM | CC50 at 24 h [2]: 24.5 µM | Cell viability (% of vehicle control) (Vero-E6 cells; 1.56 μM): 94.81 % of vehicle control | Cell viability (% of vehicle control) (Vero-E6 cells; 3.13 μM): 97.38 % of vehicle control | Cell viability (% of vehicle control) (Vero-E6 cells; 6.25 μM): 91.24 % of vehicle control | Cell viability (% of vehicle control) (Vero-E6 cells; 12.5 μM): 78.14 % of vehicle control | Cell viability (% of vehicle control) (Vero-E6 cells; 25 μM): 58.25 % of vehicle control | Cell viability (% of vehicle control) (Vero-E6 cells; 50 μM): 0.28 % of vehicle control | Cell viability (% of vehicle control) (Vero-E6 cells; 100 μM): 0.96 % of vehicle control | Toxicity on Vero E6 cells (in words) (Vero-E6 cells; all tested concentrations): good safety for the test cells in vitro | Inhibition of SARS-CoV-2 (in words) ([4]; Example 3, cellular level, Vero cells): inhibitory effect | EC50 ([4]; Severe acute respiratory syndrome coronavirus 2, 48 h, Example 3, Vero cells, viral load 100 TCID50, two days after infection): 8.99 µM | Inhibition of SARS-CoV-2 (in words) [3]: inhibitory activity | Inhibition of SARS-CoV-2 (in words) ([3]; listed as tetrandrine): obvious inhibitory effects | SI (selectivity index) ([3]; MOI 0.01): 15.22 | SI (selectivity index) ([3]; MOI 0.05): 12.51 | EC50 [3, 5]: 1610 nM | EC50 [3, 6]: 1950 nM
